Assay results as given in patent US5770713A, “Phosphorothioate triester oligonucleotides and method of preparation” (Centre National de la Recherche Scientifique, priority 1993, dated 1998).

Key:
[1] = Stability of dimers in culture medium (RPMI + 10% serum), HPLC; format: in vitro ADME, fetal calf; conditions: 37° C., C0 =5×10^-5 M; for % PS^- (molar fraction of phosphorothioate diester dinucleoside formed, relative to initial quantity of phosphorothioate triester dinucleoside): after complete decomposition of the starting triester; for % PO^- (molar fraction of phosphodiester dinucleoside, relative to initial quantity of phosphorothioate triester dinucleoside): calculated as 100-% PS^- formed; for half-life at 50 µM: read-out: t1/2 (time at the end of which half of the starting product has decomposed) (converted)
Procedure: (§1) Distilled water is purified on a MilliQ system (Waters-Millipore), Acetonitrile is of HPLC-far UV quality (Fisons), Ammonium acetate is of "analytical" quality (MERCK), The culture media are composed of 90% of RPMI 1640 and 10% of heat-inactivated fetal calf serum (GIBCO), The cellular extracts were kindly supplied by a person -M. Aubertin (University of Strasbourg I). They are prepared in the following way: CEM cells in the exponential growth phase are separated from the culture medium by centrifugation (10^4 g, 4 min, […]). The residue (approximately100 μl, 5×10^7 cells) is dissolved in 2 ml of buffer (Tris-HCl 140 mM, pH=7.4) and sonicated. The lysate is centrifuged (10^5 g, 1 h, 4°) to eliminate membranes, organelles and chromatin. Two types of eluents were utilized for the HPLC:
(§2) A 10^-2 M solution of the compound to be studied is prepared in DMSO.
(§3) This solution is diluted with water to give a parent solution of concentration 5×10^-4 M.
a) Study of stability in culture medium:
100 μl of parent solution of the compound to be studied are added to 900 μl of culture medium which has previously been filtered on a Millex GV sterile filter (Millipore, 0.22 μm). After mixing, fractions (100 μl) are distributed in sterile Eppendorf tubes. These tubes are placed in an oven at 37° C. and removed as a function of the kinetic development. The samples are immediately analyzed by HPLC (volume injected: 80 μl) or preserved at -25° C. with a view to subsequent analysis.
(§4) tl/2 =time at the end of which half of the starting product has decomposed
(§5) % PO^- , % PS^- =molar fractions of phosphodiester dinucleoside and of phosphorothioate diester dinucleoside, expressed in relation to the initial quantity of phosphorothioate triester dinucleoside.
(§6) The percentage of PS^- corresponds to the quantity of phosphorothioate diester dinucleoside formed after complete decomposition of the starting phosphorothioate triester dinucleoside (considering that the phosphorothioate diester dinucleoside is stable under the condition used and accumulates).

[2] = Stability of dimers in cellular extract (CEM cells), HPLC; format: in vitro ADME; conditions: 37° C., C0 =5×10^-5 M; for % PS^- (molar fraction of phosphorothioate diester dinucleoside formed, relative to initial quantity of phosphorothioate triester dinucleoside): after complete decomposition of the starting triester; for half-life at 50 µM: human, cem cell extract, read-out: t1/2 (time at the end of which half of the starting product has decomposed)
Procedure: as §1, §2, §3
b) Study of stability in cellular extract: 100 μl of parent solution of the compound to be studied are added to 900 μl of cellular extract which has previously been filtered on a Millex GV sterile filter (Millipore, 0.22 μm). After mixing, fractions (100 μl) are distributed in Eppendorf tubes. These tubes are placed in an oven at 37° C. and removed as a function of the kinetic development. The samples are immediately analyzed by HPLC.
as §4, §5, §6

[3] = Stability of oligonucleotides in culture medium (RPMI + 10% serum), HPLC; format: in vitro ADME, fetal calf; conditions: 37° C.
Procedure: as §1
(§7) The general conditions are the same as those used for the study of stability of the phosphorothioate triester dimers, as far as the method, the equipment and the chemical products are concerned. […]
30 μl of parent solution of oligonucleotide (being approximately 1.5 A260 units) are removed, which are added to 1470 μl of culture medium which has previously been filtered on a sterile Millex GV filter (Millipore 0.22 μm). […] The samples are immediately analyzed by HPLC (volume injected 80 μl) or preserved at -25° C. with a view to subsequent analysis.

[4] = Stability of oligonucleotides in cellular extract (CEM cells), HPLC; format: in vitro ADME; conditions: 37° C.
Procedure: as §1, §7
10 μl of oligonucleotide parent solution are added to 990 μl of cellular extract which have previously been filtered on a sterile Millex GV filter (Millipore, 0.22 μm). After mixing, fractions (100 μl) are distributed in sterile Eppendorf tubes, placed in an oven at 37° C., sampled at different times and immediately analyzed by HPLC.

In the case of CC(=O)SCSP(=O)(OC[C@H]1O[C@@H](n2cc(C)c(=O)[nH]c2=O)C[C@@H]1O)O[C@H]1C[C@H](n2cc(C)c(=O)[nH]c2=O)O[C@@H]1CO (stereo partly drawn) [Compound 4c, O-(Thymidin-3'-yl) O-(thymidin-5'-yl) S-(acetylthiomethyl) phosphorothioate], the “% PS^- (molar fraction of phosphorothioate diester dinucleoside formed, relative to initial quantity of phosphorothioate triester dinucleoside)” value [1] is reported as 80%, the “% PO^- (molar fraction of phosphodiester dinucleoside, relative to initial quantity of phosphorothioate triester dinucleoside)” value [1] is reported as 20% and the half-life at 50 µM [1] is reported as 60 min. For the same compound, the “% PS^- (molar fraction of phosphorothioate diester dinucleoside formed, relative to initial quantity of phosphorothioate triester dinucleoside)” value [2] was 100% and the half-life at 50 µM [2] was 5 to 10 min.

For “6b: completely alkylated phosphorothioate dodecamer 6b; from d(CP(S) Ap(s) Cp(s) Cp(s) Cp(s) Ap(s) Ap(s) Tp(s) Tp(s) Cp(s) Tp(s) G) SEQ. ID. NO: 1 (CACCCAATTCTG; DNA, backbone not given here; all phosphorothioate linkages alkylated) [Compound 6b, completely alkylated phosphorothioate dodecamer 6b; ID; NO: 1]”, the “t1/2 of disappearance of the starting oligonucleotide” value [3] was 55 min, the “t1/2 of disappearance of the starting oligonucleotide” value [4] was under 2 min and the “t1/2 of formation of the totally deprotected oligonucleotide” value [4] was 25 min.

In the case of CC(=O)SCCSP(=O)(OC[C@H]1O[C@@H](n2cc(C)c(=O)[nH]c2=O)C[C@@H]1O)O[C@H]1C[C@H](n2cc(C)c(=O)[nH]c2=O)O[C@@H]1CO (stereo partly drawn) [Compound 4b, O-(Thymidin-3'-yl) O-(thymidin-5'-yl) S-(acetylthioethyl) phosphorothioate], the “% PS^- (molar fraction of phosphorothioate diester dinucleoside formed, relative to initial quantity of phosphorothioate triester dinucleoside)” value [1] is reported as 50%, the “% PO^- (molar fraction of phosphodiester dinucleoside, relative to initial quantity of phosphorothioate triester dinucleoside)” value [1] is reported as 50% and the half-life at 50 µM [1] is reported as 420 min. The “% PS^- (molar fraction of phosphorothioate diester dinucleoside formed, relative to initial quantity of phosphorothioate triester dinucleoside)” value [2] was 100% and the half-life at 50 µM [2] was 10 min.

For Cc1cn([C@H]2C[C@H](OP(=O)(OC[C@H]3O[C@@H](n4cc(C)c(=O)[nH]c4=O)C[C@@H]3O)SCOC(=O)C(C)(C)C)[C@@H](CO)O2)c(=O)[nH]c1=O (stereo partly drawn) [Compound 4a, O-(Thymidin-3'-yl) O-(thymidin-5'-yl) S-(pivaloyloxymethyl) phosphorothioate], the “% PS^- (molar fraction of phosphorothioate diester dinucleoside formed, relative to initial quantity of phosphorothioate triester dinucleoside)” value [1] was 20%, the “% PO^- (molar fraction of phosphodiester dinucleoside, relative to initial quantity of phosphorothioate triester dinucleoside)” value [1] was 80% and the half-life at 50 µM [1] was 360 min. For the same compound, the “% PS^- (molar fraction of phosphorothioate diester dinucleoside formed, relative to initial quantity of phosphorothioate triester dinucleoside)” value [2] was 100% and the half-life at 50 µM [2] was 40 min.
